Reference: paper PMC8161026, “Synthesis and Anticancer Activity Evaluation of 5-[2-Chloro-3-(4-nitrophenyl)-2-propenylidene]-4-thiazolidinones” (Molecules, 2021)

Tests used:
OVCAR-4 = assay: NCI DTP 60 cell line screen, SRB
Prostate Cancer subpanel = assay: cells
Description: (§1) At the first stage of biological activity study, the antitumor activity screening of the selected compounds 2b, 2c, 2f, 2h, and 2j was performed according to the NCI DTP (USA) standard protocol at the concentrations ranging from 10^−4 to 10^−8 M toward 60 tumor cell lines. The percentage of growth was evaluated spectrophotometrically versus controls not treated with test agents after 48 h exposure and using SRB protein assay to estimate cell viability or growth. Dose–response parameters were calculated for each cell line: GI50—molar concentration of the compound that inhibits 50% net cell growth; TGI—molar concentration of the compound leading to the total inhibition; and LC50—molar concentration of the compound leading to 50% net cell death. Furthermore, mean graph midpoints (MG_MID) were calculated for each of the parameters, giving an average activity parameter over all cell lines for the tested compound. For the MG_MID calculation, insensitive cell lines were included with the highest concentration tested.
(§2) The selectivity index (SI) obtained by dividing the full panel MG-MID (mM) of the tested compound by their individual subpanel MG-MID (mM) was considered as a measure of selectivity of anticancer activity (Table 3).
(§3) Primary anticancer assay was performed on a panel of approximately sixty human tumor cell lines derived from nine neoplastic diseases, in accordance with the protocol of the Drug Evaluation Branch, National Cancer Institute, Bethesda. Tested compounds were added to the culture at a single concentration (10^−5 M) and the cultures were incubated for 48 h. End point determinations were made with a protein binding dye, sulforhodamine B (SRB). […] The percentage growth was evaluated spectrophotometrically versus controls not treated with test agents.
(§4) Dose–response parameters (GI50, TGI, LC50) were calculated for each compound. […] The drug concentration resulting in total growth inhibition (TGI) was calculated from Ti = Tz. The LC50 (concentration of drug resulting in a 50% reduction in the measured protein at the end of the drug treatment as compared to that at the beginning) indicating a net loss of cells following treatment was calculated from [(Ti − Tz)/Tz] × 100 = −50 (2). Values were calculated for each of these parameters if the level of activity was reached; however, if the effect was not reached or was excessive, the value for that parameter was expressed as more or less than the maximum or minimum concentration tested.

Melanoma subpanel = assay: cells
Description: as §1, §2, §3, §4

Leukemia subpanel = assay: cells
Description: as §1, §2, §3, §4

Ovarian Cancer subpanel = assay: cells
Description: as §1, §2, §3, §4

CNS Cancer subpanel = assay: cells
Description: as §1, §2, §3, §4

Colon Cancer subpanel = assay: cells
Description: as §1, §2, §3, §4

Breast Cancer subpanel = assay: cells
Description: as §1, §2, §3, §4

[1] = tested on: Non-Small Cell Lung Cancer subpanel; assay: cells
Description: as §1, §2, §3, §4

Renal Cancer subpanel = assay: cells
Description: as §1, §2, §3, §4

UACC-62 = assay: NCI DTP 60 cell line screen, SRB
HCT-116 = HCT-116 (Colon Cancer), 48 h, SRB
SK-OV-3 = assay: NCI DTP 60 cell line screen, SRB
NCI-H23 = assay: cells; conditions: Homo sapiens, NCI-H23, 48 h
DU-145 = DU-145 (Prostate Cancer), 48 h, SRB
SK-MEL-2 = assay: cells; conditions: Homo sapiens, SK-MEL-2, 48 h
K-562 = assay: cells; conditions: Homo sapiens, K562, 48 h
[2] = Homo sapiens, read-out: MG_MID, GI50
[3] = Homo sapiens, read-out: MG_MID, LC50

O=C(O)CCN1C(=O)/C(=C/C(Cl)=C/c2ccc([N+](=O)[O-])cc2)SC1=S [Compound 2h, 3-{5-[(Z,2Z)-2-Chloro-3-(4-nitrophenyl)-2-propenylidene]-4-oxo-2-thioxothiazolidin-3-yl}propanoic acid]
GI50 (OVCAR-4; Homo sapiens, OVCAR-4, 48 h): 2.66 µM
CC50 (OVCAR-4; Homo sapiens, OVCAR-4, 48 h, read-out: LC50): 56.2 µM
TGI (OVCAR-4; OVCAR-4 (Ovarian Cancer), 48 h, SRB): 14.9 µM
SI (selectivity index), GI50 (Prostate Cancer subpanel): 2.77
SI (selectivity index), TGI (Prostate Cancer subpanel): 1.55
GI50 (Prostate Cancer subpanel; [2]): 0.567 µM
CC50 (Prostate Cancer subpanel; [3]): 47.1 µM
MG_MID, TGI (Prostate Cancer subpanel; Prostate Cancer panel mean): 8.59 µM
SI (selectivity index), LC50 (Prostate Cancer subpanel; full panel MG_MID / Prostate Cancer subpanel MG_MID): 1.38
SI (selectivity index), GI50 (Melanoma subpanel): 0.64
SI (selectivity index), TGI (Melanoma subpanel): 0.96
GI50 (Melanoma subpanel; [2]): 2.45 µM
CC50 (Melanoma subpanel; [3]): 53.1 µM
MG_MID, TGI (Melanoma subpanel; Melanoma panel mean): 13.9 µM
SI (selectivity index), LC50 (Melanoma subpanel; full panel MG_MID / Melanoma subpanel MG_MID): 1.22
SI (selectivity index), GI50 (Leukemia subpanel): 10.83
SI (selectivity index), TGI (Leukemia subpanel): 2.45
TI (Therapeutic Index) (Leukemia subpanel; GI50 (normal blood lymphocyte)/GI50 (Leukemia Panel)): 376.14
GI50 (Leukemia subpanel; [2]): 0.145 µM
CC50 (Leukemia subpanel; [3]): > 100 µM
MG_MID, TGI (Leukemia subpanel; Leukemia panel mean): 5.42 µM
SI (selectivity index), LC50 (Leukemia subpanel; full panel MG_MID / Leukemia subpanel MG_MID): <0.65
SI (selectivity index), GI50 (Ovarian Cancer subpanel): 0.74
SI (selectivity index), TGI (Ovarian Cancer subpanel): 1.05
GI50 (Ovarian Cancer subpanel; [2]): 2.13 µM
CC50 (Ovarian Cancer subpanel; [3]): 68.7 µM
MG_MID, TGI (Ovarian Cancer subpanel; Ovarian Cancer panel mean): 12.7 µM
SI (selectivity index), LC50 (Ovarian Cancer subpanel; full panel MG_MID / Ovarian Cancer subpanel MG_MID): 0.95
SI (selectivity index), GI50 (CNS Cancer subpanel): 0.50
SI (selectivity index), TGI (CNS Cancer subpanel): 0.75
MG_MID, TGI (CNS Cancer subpanel; CNS Cancer panel mean): 17.7 µM
GI50 (CNS Cancer subpanel; [2]): 3.13 µM
CC50 (CNS Cancer subpanel; [3]): 84.9 µM
SI (selectivity index), LC50 (CNS Cancer subpanel; full panel MG_MID / CNS Cancer subpanel MG_MID): 0.77
SI (selectivity index), GI50 (Colon Cancer subpanel): 3.43
SI (selectivity index), TGI (Colon Cancer subpanel): 0.57
MG_MID, TGI (Colon Cancer subpanel; Colon Cancer panel mean): 23.3 µM
GI50 (Colon Cancer subpanel; [2]): 0.458 µM
CC50 (Colon Cancer subpanel; [3]): > 100 µM
SI (selectivity index), LC50 (Colon Cancer subpanel; full panel MG_MID / Colon Cancer subpanel MG_MID): <0.65
SI (selectivity index), GI50 (Breast Cancer subpanel): 2.63
SI (selectivity index), TGI (Breast Cancer subpanel): 0.63
MG_MID, TGI (Breast Cancer subpanel; Breast Cancer panel mean): 21.1 µM
GI50 (Breast Cancer subpanel; [2]): 0.598 µM
CC50 (Breast Cancer subpanel; [3]): 49.6 µM
SI (selectivity index), LC50 (Breast Cancer subpanel; full panel MG_MID / Breast Cancer subpanel MG_MID): 1.31
SI (selectivity index), GI50 [1]: 0.59
SI (selectivity index), TGI [1]: 1.38
GI50 [1, 2]: 2.65 µM
CC50 [1, 3]: 61.4 µM
MG_MID, TGI ([1]; Non-Small Cell Lung Cancer panel mean): 9.61 µM
SI (selectivity index), LC50 ([1]; full panel MG_MID / Non-Small Cell Lung Cancer subpanel MG_MID): 1.06
SI (selectivity index), TGI (Renal Cancer subpanel): 2.77
GI50 (Renal Cancer subpanel; [2]): 0.99 µM
CC50 (Renal Cancer subpanel; [3]): 23.8 µM
MG_MID, TGI (Renal Cancer subpanel; Renal Cancer panel mean): 4.81 µM
SI (selectivity index), LC50 (Renal Cancer subpanel; full panel MG_MID / Renal Cancer subpanel MG_MID): 2.73
GI50 (UACC-62; Homo sapiens, UACC-62, 48 h): 1.23 µM
CC50 (UACC-62; Homo sapiens, UACC-62, 48 h, read-out: LC50): 7.18 µM
TGI (UACC-62; UACC-62 (Melanoma), 48 h, SRB): 2.97 µM
TGI (HCT-116): 1.19 µM
GI50 (SK-OV-3; Homo sapiens, SK-OV-3, 48 h): 6.83 µM
CC50 (SK-OV-3; Homo sapiens, SK-OV-3, 48 h, read-out: LC50): 77.6 µM
TGI (SK-OV-3; SK-OV-3 (Ovarian Cancer), 48 h, SRB): 27.4 µM
GI50 (NCI-H23): 1.44 µM
CC50 (NCI-H23; read-out: LC50): 7.19 µM
TGI (DU-145): 3.48 µM
GI50 (SK-MEL-2): 0.802 µM
CC50 (SK-MEL-2; read-out: LC50): 65.1 µM
GI50 (K-562): 0.212 µM
CC50 (K-562; read-out: LC50): > 100 µM
